Laboratory results: patent US4851338A, “Method for diagnosing the presence of bacteria” (Biocarb AB, priority 1982, dated 1989)

Experiments:
[1] = test system: haemagglutination between sheep erythrocytes and S. saprophyticus bacteria (Mc 2 and Mc 194); assay: Inhibition of haemagglutination of sheep erythrocytes with Staphylococcus saprophyticus; type: cell-based; conditions: for minimal effective concentration: Staphylococcus saprophyticus, Erythrocyte, read-out: Minimum inhibitory con.; for Minimum inhibitory con.: Inhibition of haemagglutination, S. saprophyticus Mc 2 and Mc 194, 2 HU bacteria
Procedure: In the tests the bacteria S. saprophyticus strains, both isolated from urine from patents having urinary tract infection, were used. The bacteria were cultivated in tryptone broth over night, pelletized by means of centrifugation and washed twice with PBS, pH 7.2. Haemagglutination was performed using erythrocytes from sheep obtained from sheep blood and washed twice with 0.85 % saline.
In the haemagglutination-indication experiments microtitre plates (Limbo Sc. Comp. Inc) were used. 25 μl of bacterial suspension were titrated in PBS by two-step titre steps, 25 μl of 1% erythrocyte suspension being then added. The haemagglutination titre was determined after incubation of the plates for 2-4 hours in room temperature.
In the inhibition experiments serial dilutions of the relevant inhibitor (50 μl/well) and 25 μl of bacterial suspension diluted to contain 2 HU haemagglutinating units of bacteria were used. The plates were incubated for 30 minutes at 37° C., 25 μl of the erythrocyte suspension being then added to each well.

[2] = test system: NK-cells activity (lymphocytes) against K-562 cells; assay: Inhibition of NK-cells activity (chromium release cytotoxicity of lymphocytes against K-562); type: cell-based, human; conditions: for % specific cytotoxicity: ratio 20:1
Procedure: Lymphocytes isolated from peripheral blood drained from normal donors have the ability of exerting a cytotoxic, (i.e. cell killing activity against certain types of cells in culture. In the instant example there is used a human leukemia cell line called K-562 as a target cell for such cytolytic activity.
Method: K-562 cells intracellularly labelled with radioactive chromium are incubated with effector cells (lymphocytes) for 4 hours at 37° C. The cytotoxic effect is measured as the quantity of isotope released in relation to remaining isotope in the target cells. For details see Malmstrom, P., Jonsson, Å, and Sjogren, H.O. "Countercurrent distribution of lymphocytes from human peripheral blood in an aqueous two-phase system. II. Separation into subsets of lymphocytes with distinctive functions". Cell Immunol. 53:51-64, 1980. For studying inhibiting substances effector cells (6×10^6 cells/ml) are preincubated with the respective oligosaccharides diluted in cultivating medium for half an hour at 37° C. After washing with centrifugation the effector cells are transferred directly to the target cells.

[3] = test system: adhesion of S. saprophyticus to urinary epithelial cells; assay: Inhibition of adherence of S. saprophyticus to urinary epithelial cells; type: cell-based, Staphylococcus saprophyticus
Procedure: Cells from urinary epithelium were suspended in cell cultivation medium RPMI 1640 (Flow Ltd) to a concentration of 10^5 cells/ml.
Microorganisms of the type S. saprophyticus were suspended in RPMI 1640 to a concentration of 10^9 bacteria/ml. Oligosaccharides which were tested for their ability of preventing adhesion of S. saprophyticus to urinary epithelial cells were dissolved in RPMI 1640 to a concentration of 5 mg/ml. In the experiments 1 ml of the oligosaccharide solution was incubated with 0.1 ml bacterial suspension at 37° C. for 30 minutes. Urinary epithelial cells were incubated with the bacterial suspension incubated in advance as described above with oligosaccharide solution for 45 minutes at 37° C. As a control there was used a bacterial suspension preincubated with 1 ml RPMI 1640.
Incubated samples were filtrated through a 12μ filter and washed 3 times with PBS. The filter was pressed against microscope slides for a few seconds, the slides being then fixed in methanol for 10 minutes. The slides were dried in air and coloured with acridine orange for 2 minutes. The slides were washed, dried in air and studies in fluorescence microscope. The number of bacteria per cell was counted. In each experiment 50 cells were counted.

[4] = 0.3 mg/ml oligosaccharide, experiment 1 (without inhibitor 22.3)
[5] = 0.3 mg/ml oligosaccharide, experiment 2 (without inhibitor 32.0)
[6] = 1 mg/ml oligosaccharide, experiment 1 (without inhibitor 22.3)
[7] = 1 mg/ml oligosaccharide, experiment 2 (without inhibitor 32.0)
[8] = 3 mg/ml oligosaccharide, experiment 1 (without inhibitor 22.3)
[9] = 3 mg/ml oligosaccharide, experiment 2 (without inhibitor 32.0)

Molecule: CC(=O)NC1C(O)CC(OC2C(O)C(CO)OC(OC3C(CO)OC(O)C(O)C3O)C2O)(C(=O)O)OC1C(O)C(O)CO (stereo not drawn) [3'siallyl-lactose, α-NeuNAcp-(2-3)-β-Galp-(1-4)-Glc, reference compound]
- minimal effective concentration [1]: > 2500 µg/mL
- % specific cytotoxicity [2, 4]: 23.9%
- % specific cytotoxicity [2, 5]: 28.7%
- % specific cytotoxicity [2, 6]: 25.2%
- % specific cytotoxicity [2, 7]: 19.7%
- % specific cytotoxicity [2, 8]: 20.0%
- % specific cytotoxicity [2, 9]: 19.1%

Molecule: CC(=O)NC1C(O)CC(OCC2OC(OC3C(CO)OC(O)C(O)C3O)C(O)C(O)C2O)(C(=O)O)OC1C(O)C(O)CO (stereo not drawn) [6'siallyl-lactose, α-NeuNAcp-(2-6)-β-Galp-(1-4)-Glc, reference compound]
- minimal effective concentration [1]: > 2500 µg/mL
- % specific cytotoxicity [2, 4]: 21.3%
- % specific cytotoxicity [2, 5]: 20.2%
- % specific cytotoxicity [2, 6]: 15.8%
- % specific cytotoxicity [2, 7]: 17.2%
- % specific cytotoxicity [2, 8]: 9.6%
- % specific cytotoxicity [2, 9]: 15.1%

Molecule: CC(=O)N[C@H]1[C@H](O[C@@H]2[C@@H](OC[C@H]3O[C@@H](O[C@H]4[C@H](O)[C@@H](NC(C)=O)C(O)O[C@@H]4CO)[C@@H](O)[C@@H](O[C@H]4O[C@H](CO)[C@@H](O)[C@H](O)[C@@H]4O[C@@H]4O[C@H](CO)[C@@H](O[C@@H]5O[C@H](CO)[C@H](O)[C@H](O)[C@H]5O)[C@H](O)[C@H]4NC(C)=O)[C@@H]3O)O[C@H](CO)[C@@H](O)[C@@H]2O)O[C@H](CO)[C@@H](O[C@@H]2O[C@H](CO)[C@H](O)[C@H](O)[C@H]2O)[C@@H]1O (stereo partly drawn) [GM1 -octa]
- minimal effective concentration [1]: 200 µg/mL
- % specific cytotoxicity [2, 4]: 16.1%
- % specific cytotoxicity [2, 5]: 28.0%
- % specific cytotoxicity [2, 6]: 11.3%
- % specific cytotoxicity [2, 7]: 25.0%
- % specific cytotoxicity [2, 8]: 1.7%
- % specific cytotoxicity [2, 9]: 12.8%
- cytolytic effect after preincubation with the oligosaccharides ([2]; in concentrations down to 0.3 mg/ml): inhibited

Molecule: OC[C@H]1O[C@H](O[C@H]2[C@@H](O)[C@@H](CO)OC(O)[C@@H]2O)[C@H](O)[C@@H](O)[C@H]1O (stereo partly drawn) [α-Galp-(1-3)-Gal]
- minimal effective concentration [1]: > 2500 µg/mL

Molecule: OC[C@H]1O[C@H](O[C@@H]2[C@H](O)[C@@H](O)C(O)O[C@@H]2CO)[C@H](O)[C@@H](O)[C@H]1O (stereo partly drawn) [α-Galp-(1-4)-Gal]
- minimal effective concentration [1]: > 2500 µg/mL

Molecule: OC[C@H]1O[C@H](O[C@@H]2[C@H](O)[C@@H](O)[C@H](O[C@H]3[C@H](O)[C@@H](O)C(O)O[C@@H]3CO)O[C@@H]2CO)[C@H](O)[C@@H](O)[C@H]1O (stereo partly drawn) [α-Galp-(1-4)-β-Galp-(1-4)-Glc]
- minimal effective concentration [1]: > 2500 µg/mL

Molecule: CC(=O)N[C@H]1[C@H](O[C@@H]2[C@H](O)[C@@H](O)[C@H](O[C@H]3[C@H](O)[C@@H](O)C(O)O[C@@H]3CO)O[C@@H]2CO)O[C@H](CO)[C@@H](O[C@@H]2O[C@H](CO)[C@H](O)[C@H](O)[C@H]2O)[C@@H]1O (stereo partly drawn) [β-Gal-(1-4)-β--GNAc-(1-4)-β-Gal-(1-4)-Glc]
- reduction of the number of adhering bacteria ([3]; oligosaccharide 5 mg/ml, preincubated 30 min at 37° C., then 45 min with cells, vs control without oligosaccharides): ~96%

Molecule: CC(=O)N[C@H]1[C@H](O[C@H]2[C@@H](O)[C@@H](CO)O[C@H](O[C@@H]3[C@H](O)[C@@H](O)[C@H](O[C@H]4[C@H](O)[C@@H](O)C(O)O[C@@H]4CO)O[C@@H]3CO)[C@@H]2O)O[C@H](CO)[C@H](O)[C@@H]1O (stereo partly drawn) [β-GalNAcp-(1-3)-α-Galp-(1-4)-β-Galp-(1-4)-Glc]
- minimal effective concentration [1]: > 2500 µg/mL

Molecule: OC[C@H]1O[C@@H](O[C@H]2[C@@H](O)[C@@H](CO)OC(O)[C@@H]2O)[C@H](O)[C@@H](O)[C@H]1O (stereo partly drawn) [β-Galp-(1-3)-Gal]
- minimal effective concentration [1]: > 2500 µg/mL

Molecule: CC(=O)N[C@H]1[C@H](O[C@H]2[C@@H](O)[C@@H](CO)O[C@@H](O[C@H]3[C@H](O)[C@@H](O)C(O)O[C@@H]3CO)[C@@H]2O)O[C@H](CO)[C@@H](O)[C@@H]1O[C@@H]1O[C@H](CO)[C@H](O)[C@H](O)[C@H]1O (stereo partly drawn) [β-Galp-(1-3)-β-GNAcp-(1-3)-β-Galp-(1-4)-Glc]
- minimal effective concentration [1]: > 2500 µg/mL

Molecule: OC[C@H]1O[C@@H](O[C@H]2[C@@H](O)[C@@H](CO)O[C@@H](O[C@H]3[C@@H](O)[C@@H](CO)OC(O)[C@@H]3O)[C@@H]2O)[C@H](O)[C@@H](O)[C@H]1O (stereo partly drawn) [β-Galp-(1-3)-β-Galp-(1-3)-Gal]
- minimal effective concentration [1]: > 2500 µg/mL

Molecule: OC[C@H]1O[C@@H](O[C@H]2[C@H](O)[C@@H](O)C(O)O[C@@H]2CO)[C@H](O)[C@@H](O)[C@H]1O (stereo partly drawn) [β-Galp-(1-4)-Glc, reference compound]
- minimal effective concentration [1]: > 2500 µg/mL
- reduction of the number of adhering bacteria (in words) ([3]; oligosaccharide 5 mg/ml, in comparison with the control test without oligosaccharides): did not reduce the number of adhering bacteria

Molecule: CO[C@@H]1O[C@H](CO)[C@@H](O[C@@H]2O[C@H](CO)[C@H](O)[C@H](O)[C@H]2O)[C@H](O)[C@H]1NC(C)=O [β-Galp-(1-4)-β-GNAcp-(1-0)-CH3]
- minimal effective concentration [1]: 250 µg/mL
- inhibition at 5000 µg/mL ([3]; Staphylococcus saprophyticus, Epithelial cell, 0.75 h, read-out: reduction of the number of adhering bacteria): ~95%

Molecule: CC(=O)N[C@H]1[C@H](O[C@H]2[C@@H](O)[C@@H](CO)O[C@@H](O[C@H]3[C@H](O)[C@@H](O)C(O)O[C@@H]3CO)[C@@H]2O)O[C@H](CO)[C@@H](O[C@@H]2O[C@H](CO)[C@H](O)[C@H](O)[C@H]2O)[C@@H]1O (stereo partly drawn) [β-Galp-(1-4)-β-GNAcp-(1-3)-β-Galp-(1-4)-Glc]
- minimal effective concentration [1]: 250 µg/mL

Molecule: OC[C@H]1O[C@@H](OC[C@H]2OC(O)[C@H](O)[C@@H](O)[C@H]2O)[C@H](O)[C@@H](O)[C@H]1O (stereo partly drawn) [β-Galp-(1-6)-Gal]
- minimal effective concentration [1]: > 2500 µg/mL

Molecule: Asialotransferrin (human): Asialotransferrin (human)
- Minimum inhibitory con. [1]: 250 µg/mL

Molecule: Transferrin (human): Transferrin (human)
- Minimum inhibitory con. [1]: > 2500 µg/mL

B1: Fetuin: Fetuin (protein, UniProt P12763 19-359, looked up)
Alpha-2-HS-glycoprotein: IPLDPVAGYKEPACDDPDTEQAALAAVDYINKHLPRGYKHTLNQIDSVKVWPRRPTGEVYDIEIDTLETTCHVLDPTPLANCSVRQQTQHAVEGDCDIHVLKQDGQFSVLFTKCDSSPDSAEDVRKLCPDCPLLAPLNDSRVVHAVEVALATFNAESNGSYLQLVEISRAQFVPLPVSVSVEFAVAATDCIAKEVVDPTKCNLLAEKQYGFCKGSVIQKALGGEDVRVTCTLFQTQPVIPQPQPDGAEAEAPSAVPDAAGPTPSAAGPPVASVVVGPSVVAVPLPLHRAHYDLRHTFSGVASVESSSGEAFHVGKTPIVGQPSIPGGPVRLCPGRIRYFKI
- Minimum inhibitory con. [1]: > 2500 µg/mL
